In the NIST ThermoML archive (doi:10.1021/je100300s):
± gives the expanded uncertainty stated by the source.

Experiment: refractive index (Na D-line) (dimensionless); xn = mol fraction of the nth substance listed
Conditions: 101 kPa, Liquid, Standard Abbe refractometry

Question: Which results are given for `CC(O)CN` (centres undefined) [1-amino-2-propanol] + O?
Answer: refractive index (293.15 K, x1 = 0.05): 1.35692 ± 0.00034; refractive index (293.15 K, x1 = 0.07): 1.36527 ± 0.00034; refractive index (293.15 K, x1 = 0.0986): 1.3763 ± 0.00033; refractive index (293.15 K, x1 = 0.1993): 1.40333 ± 0.00034; refractive index (293.15 K, x1 = 0.3003): 1.41934 ± 0.00034; refractive index (293.15 K, x1 = 0.3955): 1.42844 ± 0.00034; refractive index (293.15 K, x1 = 0.4929): 1.43452 ± 0.00034; refractive index (293.15 K, x1 = 0.5995): 1.43934 ± 0.00035; refractive index (293.15 K, x1 = 0.7002): 1.44298 ± 0.00035; refractive index (293.15 K, x1 = 0.8006): 1.44474 ± 0.00036; refractive index (293.15 K, x1 = 0.8992): 1.44655 ± 0.00036; refractive index (293.15 K, x1 = 1): 1.448 ± 0.00037; refractive index (298.15 K, x1 = 0.05): 1.35622 ± 0.00034; refractive index (298.15 K, x1 = 0.07): 1.36437 ± 0.00034; refractive index (298.15 K, x1 = 0.0986): 1.37524 ± 0.00033; refractive index (298.15 K, x1 = 0.1993): 1.40184 ± 0.00033; refractive index (298.15 K, x1 = 0.3003): 1.41723 ± 0.00034; refractive index (298.15 K, x1 = 0.3955): 1.4268 ± 0.00034; refractive index (298.15 K, x1 = 0.4929): 1.43286 ± 0.00034; refractive index (298.15 K, x1 = 0.5995): 1.4377 ± 0.00035; refractive index (298.15 K, x1 = 0.7002): 1.44053 ± 0.00035; refractive index (298.15 K, x1 = 0.8006): 1.44287 ± 0.00036; refractive index (298.15 K, x1 = 0.8992): 1.4447 ± 0.00036; refractive index (298.15 K, x1 = 1): 1.44609 ± 0.00037; refractive index (303.15 K, x1 = 0.05): 1.35539 ± 0.00034; refractive index (303.15 K, x1 = 0.07): 1.36345 ± 0.00034; refractive index (303.15 K, x1 = 0.0986): 1.37416 ± 0.00033; refractive index (303.15 K, x1 = 0.1993): 1.40038 ± 0.00033; refractive index (303.15 K, x1 = 0.3003): 1.41554 ± 0.00034; refractive index (303.15 K, x1 = 0.3955): 1.42513 ± 0.00034; refractive index (303.15 K, x1 = 0.4929): 1.431 ± 0.00034; refractive index (303.15 K, x1 = 0.5995): 1.4359 ± 0.00035; refractive index (303.15 K, x1 = 0.7002): 1.43897 ± 0.00035; refractive index (303.15 K, x1 = 0.8006): 1.4411 ± 0.00036; refractive index (303.15 K, x1 = 0.8992): 1.44275 ± 0.00036; refractive index (303.15 K, x1 = 1): 1.44409 ± 0.00037; refractive index (308.15 K, x1 = 0.05): 1.35453 ± 0.00034; refractive index (308.15 K, x1 = 0.07): 1.36246 ± 0.00034; refractive index (308.15 K, x1 = 0.0986): 1.37306 ± 0.00033; refractive index (308.15 K, x1 = 0.1993): 1.39868 ± 0.00033; refractive index (308.15 K, x1 = 0.3003): 1.41385 ± 0.00034; refractive index (308.15 K, x1 = 0.3955): 1.42331 ± 0.00034; refractive index (308.15 K, x1 = 0.4929): 1.42913 ± 0.00034; refractive index (308.15 K, x1 = 0.5995): 1.43375 ± 0.00035; refractive index (308.15 K, x1 = 0.7002): 1.43685 ± 0.00035; refractive index (308.15 K, x1 = 0.8006): 1.43908 ± 0.00036; refractive index (308.15 K, x1 = 0.8992): 1.44076 ± 0.00036; refractive index (308.15 K, x1 = 1): 1.44211 ± 0.00037; refractive index (313.15 K, x1 = 0.05): 1.35365 ± 0.00034; refractive index (313.15 K, x1 = 0.07): 1.36149 ± 0.00034; refractive index (313.15 K, x1 = 0.0986): 1.37191 ± 0.00033; refractive index (313.15 K, x1 = 0.1993): 1.39716 ± 0.00033; refractive index (313.15 K, x1 = 0.3003): 1.41214 ± 0.00034; refractive index (313.15 K, x1 = 0.3955): 1.42155 ± 0.00034
